{"source": "patent US10253356B2", "about": "“Visualizing modified nucleotides and nucleic acid interactions in single cells” (SIGMA-ALDRICH CO. LLC, priority 2014, dated 2019)", "key": {"SW480 cells": {"test_system": "SW480 cells", "experiment": "Cytotoxic effects (cell shape) seen in drug-treated cells during ISH-PLA imaging", "type": "cell-based, human", "conditions": "500 nM for 24 hours, a few drug treated cells", "method": "Human cancer cells, i.e., DU145 (metastatic cancer; origin in prostrate migrated to brain) or SW480 (colon cancer), were grown in DMEM (Dulbecco's Modified Eagle's Medium) supplemented with 10% FBS and Pen/Strep antibiotics, and seeded ( 10^4 cells) per well of 8-well culture chambered coverglass plates (with silicone gasket). The cells were washed twice with HBSS, and then fixed with 4% paraformaldehyde solution (40 μL/well, 16% paraformaldehyde stock diluted 1:4 in 1×PBS) for 30 minutes at room temperature (RT). The crosslinking was stopped by adding 5 μL/well of 1.25M Glycine, and incubating at RT for 5 minutes. The cells were permeabilized by incubation for 1 hour at RT with permeabilization buffer (0.75% Tween 20 and 0.75% Triton X-100 in 1×PBS). The cells were rinsed with 1×PBS. For detection of 5-meC DNA, the cells were treated with 4 N HCL for 10 minutes at RT. The cells were washed with 1×PBS for 30 min at RT. The cells were treated for 1 minute with pre-warmed (37° C.) 0.25% Trypsin-EDTA solution, and the trypsin was inactivated by incubating for 2 minutes in pre-warmed (37° C.) quenching solution (i.e., DMEM supplemented with 10% FBS and 3 mg/mL BSA). The cells were washed with 1×PBS and blocked with an in situ hybridization blocking solution for 1 hour at RT."}, "[1]": {"test_system": "SEPTIN 9 promoter methylation in SW480 cells", "experiment": "ISH-PLA visualization of SEPTIN 9 promoter methylation after drug treatment", "type": "cell-based, human", "conditions": "SW480 colon cancer cells, 500 nM for 24 hours, SEPTIN 9 probe set (ii), FIG. 5", "method": "With this aim, a protocol was developed to perform in-situ hybridization followed by proximity ligation assay (PLA) (a.k.a., DUOLINK®, Sigma-Aldrich) and cell imaging to visualize DNA-methylation (5 meC) on the SEPTIN 9 promoter. […] The PLA assay was performed using anti-biotin and anti-5 meC antibodies, corresponding (+ and −) PLA probes, and Far Red detection reagents.\nHuman cancer cells, i.e., DU145 (metastatic cancer; origin in prostrate migrated to brain) or SW480 (colon cancer), were grown in DMEM (Dulbecco's Modified Eagle's Medium) supplemented with 10% FBS and Pen/Strep antibiotics, and seeded (˜10^4 cells) per well of 8-well culture chambered coverglass plates (with silicone gasket). The cells were washed twice with HBSS, and then fixed with 4% paraformaldehyde solution (40 μL/well, 16% paraformaldehyde stock diluted 1:4 in 1×PBS) for 30 minutes at room temperature (RT). The crosslinking was stopped by adding 5 μL/well of 1.25M Glycine, and incubating at RT for 5 minutes. The cells were permeabilized by incubation for 1 hour at RT with permeabilization buffer (0.75% Tween 20 and 0.75% Triton X-100 in 1×PBS). The cells were rinsed with 1×PBS. For detection of 5-meC DNA, the cells were treated with 4 N HCL for 10 minutes at RT. The cells were washed with 1×PBS for 30 min at RT. […]"}}}
{"smiles": "Nc1ncn([C@@H]2O[C@H](CO)[C@@H](O)[C@H]2O)c(=O)n1", "note": "[5-Azacytidine]", "values": [{"measurement": "cytotoxic effects (altered cellular shape)", "setting": "SW480 cells", "value": "cytotoxic effects in terms of altered cellular shape"}, {"measurement": "SEPTIN 9 promoter methylation (nuclear ISH-PLA signal)", "setting": "[1]", "value": "Loss of this nuclear ISH-PLA signal"}, {"measurement": "SEPTIN 9 promoter methylation (nuclear ISH-PLA signal)", "setting": "[1]; listed as 5-AzaC", "value": "diminished"}]}
